The structures appear in SMILES notation. The source made the active and inactive calls. No cut-off for these calls is given here.

The test system of one data set is L6. Briefly: Cytotoxicity against rat L6 cells assessed as growth inhibition after 48 hrs by Alamar blue assay. In kind it is cell-based. The settings on record: l6, 48 h.
Data set [1] has as its system Trypanosoma brucei brucei. Briefly: Antiparasitic activity against Trypanosoma brucei brucei BF427 assessed as growth inhibition after 48 hrs by Alamar blue assay. In kind it is functional. The settings on record: BF427, 48 h.
A short description of data set [2]: AUC (0 to 8 hrs) in mouse at 50 mg/kg, po by LC-MS analysis. In kind it is ADME, organism-based. Set-up: dose 50 mg/kg, time < 8 hr, route oral. The settings on record: in vivo.
Data set [3] in a line: Cmax in mouse at 50 mg/kg, po by LC-MS analysis. It counts as ADME, organism-based. Set-up: dose 50 mg/kg, route oral. The settings on record: in vivo.
Data set [4] is described as follows: Ratio of drug level in brain to plasma in mouse at 5 mg/kg, ip after 1 hr by LC-MS analysis. In kind it is ADME, organism-based.
In data set [5] the test system is Trypanosoma brucei rhodesiense. As to the kind of experiment: Antiparasitic activity against Trypanosoma brucei rhodesiense STIB900 infected in Swiss-Webster mouse assessed as cure rate at 50 mg/kg, bid administered via oral gavage from day 2 to 5 post infection measured after 60 days by microscopic method relative to control. It counts as functional.
Data set [6] has as its system Trypanosoma brucei brucei. As to the kind of experiment: Antiparasitic activity against Trypanosoma brucei brucei TREU667 infected in mouse assessed as decrease in parasitemia at 50 mg/kg, bid administered via oral gavage on day 21 to 34 post infection measured on day 35 by microscopic method. In kind it is functional, organism-based.
Data set [7] has as its system Liver. As to the kind of experiment: Half life in human liver microsomes at 1.5 uM by LC-MS analysis. In kind it is ADME, microsome.
The test system of data set [8] is Trypanosoma brucei brucei. Briefly: Antiparasitic activity against Trypanosoma brucei brucei TREU667 infected in mouse assessed as decrease in parasitemia at 50 mg/kg, bid administered via oral gavage on day 21 to 34 post infection measured on day 46 to 49 by microscopic method. It counts as functional, organism-based.
The target in the next data set is Cytochrome P450 3A4 (Homo sapiens, UniProt P08684). Briefly: Inhibition of human CYP3A4. It counts as ADME.
Cytochrome P450 3A4, sequence (P08684 whole entry): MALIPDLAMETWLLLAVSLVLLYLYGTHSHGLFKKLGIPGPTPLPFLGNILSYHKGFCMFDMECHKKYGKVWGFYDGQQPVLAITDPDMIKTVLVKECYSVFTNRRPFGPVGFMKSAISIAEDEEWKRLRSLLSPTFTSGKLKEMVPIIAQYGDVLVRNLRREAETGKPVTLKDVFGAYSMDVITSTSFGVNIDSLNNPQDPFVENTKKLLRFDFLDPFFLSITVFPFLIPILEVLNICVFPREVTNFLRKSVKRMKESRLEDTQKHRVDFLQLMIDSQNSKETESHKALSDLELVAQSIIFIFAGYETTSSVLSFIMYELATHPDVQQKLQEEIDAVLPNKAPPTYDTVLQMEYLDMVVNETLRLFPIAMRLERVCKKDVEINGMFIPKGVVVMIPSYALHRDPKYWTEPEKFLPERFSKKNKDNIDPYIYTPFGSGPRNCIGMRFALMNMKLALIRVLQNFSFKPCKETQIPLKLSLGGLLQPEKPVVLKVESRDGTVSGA
Another data set concerns HepG2. As to the kind of experiment: Cytotoxicity against human HepG2 cells assessed as growth inhibition after 48 hrs by Alamar blue assay. In kind it is cell-based. The settings on record: hepg2, 48 h.
For data set [9], the system named is Trypanosoma brucei brucei. As to the kind of experiment: Antiparasitic activity against Trypanosoma brucei brucei TREU667 infected in mouse assessed as decrease in parasitemia at 50 mg/kg, bid administered via oral gavage on day 21 to 34 post infection measured on day 34 by microscopic method. It counts as functional, organism-based.
The subject of data set [10] is Liver. As to the kind of experiment: Half life in mouse liver microsomes at 1.5 uM by LC-MS analysis. It counts as ADME, microsome.
Data set [11] relates to Trypanosoma brucei brucei. As to the kind of experiment: Antiparasitic activity against Trypanosoma brucei brucei TREU667 infected in mouse assessed as decrease in parasitemia at 50 mg/kg, bid administered via oral gavage on day 21 to 34 post infection measured on day 36 by microscopic method. It counts as functional, organism-based.
Data set [12] in a line: Cytotoxicity against human CRL8155 cells assessed as growth inhibition after 48 hrs by Alamar blue assay. In kind it is cell-based. The settings on record: crl8155, 48 h.
The test system of data set [13] is Trypanosoma brucei brucei. As to the kind of experiment: Antiparasitic activity against Trypanosoma brucei brucei TREU667 infected in mouse assessed as decrease in parasitemia at 50 mg/kg, bid administered via oral gavage on day 21 to 34 post infection measured on day 52 to 180 by microscopic method. In kind it is functional, organism-based.
The subject of data set [14] is Trypanosoma brucei brucei. As to the kind of experiment: Antiparasitic activity against Trypanosoma brucei brucei TREU667 infected in mouse assessed as decrease in parasitemia at 50 mg/kg, bid administered via oral gavage on day 21 to 34 post infection measured on day 50 to 51 by microscopic method. In kind it is functional, organism-based.
Data set [15] deals with Trypanosoma brucei brucei. Briefly: Antiparasitic activity against Trypanosoma brucei brucei TREU667 infected in mouse assessed as decrease in parasitemia at 50 mg/kg, bid administered via oral gavage on day 21 to 34 post infection measured on day 41 to 42 by microscopic method. In kind it is functional, organism-based.
Data set [16] relates to Trypanosoma brucei brucei. As to the kind of experiment: Antiparasitic activity against Trypanosoma brucei brucei TREU667 infected in mouse assessed as decrease in parasitemia at 50 mg/kg, bid administered via oral gavage on day 21 to 34 post infection measured on day 39 by microscopic method. It counts as functional, organism-based.
Data set [17] deals with Trypanosoma brucei brucei. Briefly: Antiparasitic activity against Trypanosoma brucei brucei TREU667 infected in mouse assessed as decrease in parasitemia at 50 mg/kg, bid administered via oral gavage on day 21 to 34 post infection measured on day 37 by microscopic method. It counts as functional, organism-based.
For data set [18], the system named is Trypanosoma brucei brucei. Briefly: Antiparasitic activity against Trypanosoma brucei brucei TREU667 infected in mouse assessed as decrease in parasitemia at 50 mg/kg, bid administered via oral gavage on day 21 to 34 post infection measured on day 43 to 45 by microscopic method. It counts as functional, organism-based.
The subject of data set [19] is Trypanosoma brucei brucei. As to the kind of experiment: Antiparasitic activity against Trypanosoma brucei brucei TREU667 infected in mouse assessed as decrease in parasitemia at 50 mg/kg, bid administered via oral gavage on day 21 to 34 post infection measured on day 40 by microscopic method. In kind it is functional, organism-based.
Data set [20] deals with Trypanosoma brucei brucei. As to the kind of experiment: Antiparasitic activity against Trypanosoma brucei brucei TREU667 infected in mouse assessed as decrease in parasitemia at 50 mg/kg, bid administered via oral gavage on day 21 to 34 post infection measured on day 38 by microscopic method. In kind it is functional, organism-based.
The subject of data set [21] is Trypanosoma brucei brucei. As to the kind of experiment: Antiparasitic activity against Trypanosoma brucei brucei BF427 assessed as growth inhibition at 64 times EC50 pretreated for 72 hrs followed by compound washout measured after 10 days by light microscopic method. It counts as functional.
For data set [22], the system named is Trypanosoma brucei brucei. As to the kind of experiment: Antiparasitic activity against Trypanosoma brucei brucei BF427 assessed as growth inhibition at 32 times EC50 pretreated for 24 hrs followed by compound washout measured after 10 days by light microscopic method. In kind it is functional.
In data set [23] the test system is Trypanosoma brucei brucei. Briefly: Antiparasitic activity against Trypanosoma brucei brucei BF427 assessed as growth inhibition at 16 times EC50 pretreated for 96 hrs followed by compound washout measured after 10 days by light microscopic method. In kind it is functional.
Data set [24] has as its system Trypanosoma brucei brucei. As to the kind of experiment: Antiparasitic activity against Trypanosoma brucei brucei BF427 assessed as growth inhibition at 64 times EC50 pretreated for 48 hrs followed by compound washout measured after 10 days by light microscopic method. It counts as functional.

With `NCCN(C(=O)c1ccccc1F)c1ccc(Cl)cc1`, the CC50 with L6 is 104 µM. Also, in [1], the EC50 turned out to be 3.9 µM.

Molecule `Cl.NCCN(C(=O)c1ccc(F)cc1C(F)(F)F)c1ccc(OCc2ccc(Cl)cc2)cc1` gave an AUC(0-t) at 8 h in data set [2] of 26 µM·h. This molecule showed a Cmax in data set [3] of 4.39 µM. Also, the BPR in data set [4] worked out at 0.38. In [5], the Activity was 67 - 80%. Moreover, the result in data set [6], in data set [9] and in [11] was Active. Moreover, the t1/2 in the data set on Liver [7] and in the data set with Liver [10] was over 1 h in each case. In data set [8], the result was inactive. The molecule also returned an IC50 at Cytochrome P450 3A4 of 0.01 µM. The CC50 was found to be 7.53 µM in the data set with HepG2 and 3.67 µM in data set [12]. For the same molecule, in data set [1], the EC50 is 0.007 µM.

As to `NCCN(C(=O)c1ccc(Cl)cc1Cl)c1ccc(C(F)(F)F)cc1`, the CC50 with L6 was determined as 13.2 µM. In data set [1], the EC50 was 1.05 µM.

Take `CC1(C)OB(O)c2cc(NC(=O)c3ccc(F)cc3C(F)(F)F)ccc21`: the result in data set [13], in [14], in data set [6], in data set [8], in data set [15] and in data set [9] was Active. Besides, the result in data set [16], in data set [11], in data set [17], in data set [18], in [19] and in [20] was Active.

For `Cc1cc(C)cc(COc2ccc(N(CCN)C(=O)c3cccnc3Cl)cc2)c1.Cl.Cl`, the “growth inhibition (GI)” value in data set [21], in data set [22], in [23] and in [24] was “Active” in each case. Moreover, the exposure AUC(0-t) at 8 h in data set [2] is 10.9 µM·h. The molecule further came in with a Cmax in [3] of 2.07 µM. Moreover, in [4], the BPR came to 0.06. The Activity in data set [5] was 67 - 80%. The t1/2 in the data set on Liver [7] was 0.65 h. Also, the CC50 came to 8.38 µM with HepG2 and 5.12 µM in data set [12]. The EC50 in data set [1] was determined as 0.015 µM.

Source of the values: ChEMBL document CHEMBL4000252, “Discovery of N-(2-aminoethyl)-N-benzyloxyphenyl benzamides: New potent Trypanosoma brucei inhibitors” (Bioorg Med Chem, 2017).
